From PMC12453120, “TrkA of Streptococcus mitis CCUG31611 binds cyclic di-adenosine monophosphate and is required for growth in low potassium conditions” (Microbiology, 2025)

Columns and labels:
TrkA = target: T1, TrkA (Streptococcus mitis, UniProt A0ACG7RC27); assay: nanoDSF, isothermal FoldAffinity fit; assay type: binding; settings: 500 nM TrkA, 150 mM KCl, 20 mM HEPES, 10% glycerol, pH 7.5
T1 construct: gene SM12261_0089; full-length ORF (1-221 aa), N-terminal 6xHis tag kept, pET30b, E. coli BL21(DE3); Ni-NTA + SEC; two bands on SDS-PAGE, both TrkA by MS; MS peptide positions up to 227 include the tag
T1 sequence (A0ACG7RC27 1-221): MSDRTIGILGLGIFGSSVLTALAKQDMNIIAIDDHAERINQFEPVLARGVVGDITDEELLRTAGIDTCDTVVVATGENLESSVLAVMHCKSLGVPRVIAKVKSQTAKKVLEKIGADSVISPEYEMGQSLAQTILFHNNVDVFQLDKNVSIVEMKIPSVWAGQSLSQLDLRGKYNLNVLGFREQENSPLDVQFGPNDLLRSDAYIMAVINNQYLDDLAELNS
Text: nanoDSF, isothermal FoldAffinity fit on TrkA

[1] = target: TrkA of Streptococcus mitis CCUG31611 (SM12261_0089), recombinant with N-terminal 6x His-tag (Streptococcus mitis CCUG31611); assay: SEC; Sepharose 6 Increase 10-300 GL column, AKTA pure; 150 mM KCl, 20 mM HEPES, pH 7.5; flow 0.2 ml/min; MW estimated from a standard curve of gel filtration markers (12,000-200,000 Da), logMW vs VE/V0
[2] = Tiso 52 °C, unreliable (above the highest ligand concentration, 500 µM)

## Nc1ncnc2c1ncn2[C@@H]1O[C@H](COP(=O)(O)O)[C@@H](O)[C@H]1O [AMP]
TrkA; Tiso 54 °C, unreliable (above the highest ligand concentration, 500 µM)
  Kd,app (μM)‡: 2,050.000 ± 494.975 µM

## Nc1ncnc2c1ncn2[C@@H]1O[C@H](COP(=O)(O)OP(=O)(O)OP(=O)(O)O)[C@@H](O)[C@H]1O [ATP]
TrkA; [2]
  Kd,app (μM)‡: 2,610.000 ± 2390.021 µM

## Nc1nc2c(ncn2[C@@H]2O[C@@H]3COP(=O)(O)O[C@H]4[C@@H](O)[C@H](n5cnc6c(=O)[nH]c(N)nc65)O[C@@H]4COP(=O)(O)O[C@H]3[C@H]2O)c(=O)[nH]1 [c-di-GMP]
TrkA; Tiso 54 °C, unreliable (far above the highest ligand concentration, 500 µM)
  Kd,app (μM)‡: 100,000.000 ± 0.000 µM

## Nc1ncnc2c1ncn2[C@@H]1O[C@H](COP(=O)(O)O[C@H]2[C@@H](O)[C@H](n3cnc4c(N)ncnc43)O[C@@H]2COP(=O)(O)O)[C@@H](O)[C@H]1O [pApA]
TrkA; [2]
  Kd,app (μM)‡: 1,650.000 ± 494.975 µM

## TrkA of Streptococcus mitis CCUG31611 (SM12261_0089), recombinant with N-terminal 6x His-tag (natural protein)
[1]
  stoichiometry N: 8
